Experimental data published in paper PMC6338741 (Nature Communications, 2019).

Tests used:
[1] = target: T1, TDCEFS (Enterococcus faecalis, UniProt Q838D6); assay: IC50 curves with carbidopa as inhibitor, levodopa as substrate; format: biochemical, Enterococcus faecalis v583
T1 construct: 6xHis; made in house; host or cells: Escherichia coli BL21 (DE3), plasmid pSK18 (pET15b)

[2] = target: TDCEFM (Enterococcus faecium, UniProt Q3Y2S5); assay: as above; format: biochemical, Enterococcus faecium W54
[3] = target: T2, ^PTDCEFM (Enterococcus faecium, UniProt A0A481NV25); assay: as above; format: biochemical, Enterococcus faecium W54
T2 construct: 6xHis; made in house; host or cells: Escherichia coli BL21 (DE3), plasmid pSK22 (pET15b)

[4] = target: T3, human DOPA decarboxylase (DDC) (Homo sapiens, UniProt P20711); assay: as above; format: biochemical
T3 construct: 6xHis; host or cells: Escherichia coli BL21 (DE3)
T3 sequence (P20711 1-480): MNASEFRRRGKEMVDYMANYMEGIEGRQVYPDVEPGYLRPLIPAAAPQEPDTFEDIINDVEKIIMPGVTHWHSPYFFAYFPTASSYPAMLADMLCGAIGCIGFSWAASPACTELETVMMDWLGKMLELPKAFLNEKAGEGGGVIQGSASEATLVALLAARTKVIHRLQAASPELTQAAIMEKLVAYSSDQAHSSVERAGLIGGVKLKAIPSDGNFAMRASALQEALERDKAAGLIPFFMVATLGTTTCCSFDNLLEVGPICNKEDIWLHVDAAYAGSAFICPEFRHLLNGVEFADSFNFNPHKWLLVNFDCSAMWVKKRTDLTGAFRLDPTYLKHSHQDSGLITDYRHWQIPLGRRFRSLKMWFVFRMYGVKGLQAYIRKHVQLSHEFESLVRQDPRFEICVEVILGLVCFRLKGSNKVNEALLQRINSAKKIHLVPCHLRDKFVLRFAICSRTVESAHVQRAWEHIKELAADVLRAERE

[5] = target: bacterial TDCs versus human DOPA decarboxylase; assay: Comparison of the inhibitory constants (Ki^TDC/Ki^DDC); format: biochemical; settings: over the three bacterial TDCs
Procedure: (§1) Enzyme kinetics were performed in 200 mM potassium acetate buffer containing 0.1 mM PLP (pyridoxal-5-phosphate, P9255, Sigma, The Netherlands) and 10 nM of enzyme at pH 5 for TDCEFS and TDCEFM, and pH 4.5 for ^PTDCEFM. […] Michaelis–Menten kinetic curves were fitted using GraphPad Prism 7. […] Reactions were stopped with 0.7% HClO4, filtered and analyzed on the HPLC-ED-system described below.

[6] = system: E. faecium W54; assay: Levodopa decarboxylation by stationary batch cultures co-incubated with human DOPA decarboxylase inhibitors; settings: E. faecium W54, OD600 ~2.0, stationary phase, 15 min, 100 µM levodopa, equimolar or 21.7 µM carbidopa
[7] = system: E. faecalis v583; assay: as above; settings: E. faecalis v583, OD600 ~2.0, stationary phase, 15 min, 100 µM levodopa, equimolar or 21.7 µM carbidopa
[8] = system: T4, TDCEFS (tyrosine decarboxylase from E. faecalis v583); assay: Michaelis–Menten enzyme kinetics of purified tyrosine decarboxylase; format: biochemical, Enterococcus faecalis v583
T4 construct: 6xHis; made in house; host or cells: Escherichia coli BL21 (DE3), plasmid pSK18 (pET15b)
From the text: (§2) To further characterize the substrate specificity and kinetic parameters of the bacterial TDCs, tdc genes from E. faecalis v583 (TDCEFS) and E. faecium W54 (TDCEFM and ^PTDCEFM) were expressed in Escherichia coli BL21 (DE3) and then purified.
(§3) The human DOPA decarboxylase gene cloned in pET15b was ordered from GenScript (Piscataway, USA) (Supplementary Table 6). TDC-encoding genes from E. faecalis v583 (TDCEFS, accession: EOT87933), E. faecium W54 (TDCEFM, accession: MH358385; ^PTDCEFM, accession: MH358384) were amplified using Phusion High-fidelity DNA polymerase and primers listed in Supplementary Table 8. All amplified genes were cloned in pET15b, resulting in pSK18, pSK11, and pSK22, respectively (Supplementary Table 6). Plasmids were maintained in E. coli DH5α and verified by Sanger sequencing before transformation to E. coli BL21 (DE3). Overnight cultures were diluted 1:50 in fresh LB medium with the appropriate antibiotic and grown to OD600 = 0.7–0.8. Protein translation was induced with 1 mM Isopropyl β-D-1-thiogalactopyranoside (IPTG, 11411446001, Roche Diagnostics) and cultures were incubated overnight at 18 °C. The cells were washed with 1/5th of 1 × ice-cold PBS and stored at −80 °C or directly used for protein isolation. Cell pellets were thawed on ice and resuspended in 1/50th of buffer A (300 mM NaCl; 10 mM imidazole; 50 mM KPO4, pH 7.5) containing 0.2 mg/mL lysozyme (105281, Merck) and 2 µg/mL DNAse (11284932001, Roche Diagnostics), and incubated for at least 10 min on ice before sonication (10 cycles of 15 s with 30 s cooling at 8 microns amplitude) using Soniprep-150 plus (Beun de Ronde, Abcoude, The Netherlands). Cell debris were removed by centrifugation at 20,000 × g for 20 min at 4 °C. The 6 × his-tagged proteins were purified using a nickel-nitrilotriacetic acid (Ni-NTA) agarose matrix (30250, Qiagen). Cell-free extracts were loaded on 0.5 ml Ni-NTA matrixes and incubated on a roller shaker for 2 h at 4 °C. The Ni-NTA matrix was washed three times with 1.5 ml buffer B (300 mM NaCl; 20 mM imidazole; 50 mM KPO4, pH 7.5) before elution with buffer C (300 mM NaCl; 250 mM imidazole; 50 mM KPO4, pH 7.5). Imidazole was removed from purified protein fractions using Amicon Ultra centrifugal filters (UFC505024, Merck) and washed three times and reconstituted in buffer D (50 mM Tris-HCL; 300 mM NaCl; pH 7.5) for TDCEFS, and TDCEFM, buffer E (100 mM KPO4; pH 7.4) for ^PTDCEFM and buffer F (100 mM KPO4; 0.1 mM pyridoxal-5-phosphate; pH 7.4) for DDC. Protein concentrations were measured spectrophotometrically (Nanodrop 2000, Isogen, De Meern, The Netherlands) using the predicted extinction coefficient and molecular weight from ExPASy ProtParam tool (www.web.expasy.org/protparam/).
as §1

[9] = system: TDCEFM (tyrosine decarboxylase from E. faecium W54); assay: as above; format: biochemical, Enterococcus faecium W54
From the text: as §2, §3, §1

[10] = system: T5, ^PTDCEFM (paralogous tyrosine decarboxylase from E. faecium W54); assay: Michaelis–Menten enzyme kinetics of purified paralogous tyrosine decarboxylase; format: biochemical, Enterococcus faecium W54
T5 construct: 6xHis; made in house; host or cells: Escherichia coli BL21 (DE3), plasmid pSK22 (pET15b)
From the text: as §2, §3, §1

[11] = system: E. faecalis v583; assay: Bacterial cultures incubated anaerobically with levodopa, HPLC-ED; format: cell-based, Enterococcus faecalis v583; settings: E. faecalis v583 (enterococcal isolates), overnight culture, anaerobic, 37 °C, 100 µM levodopa
[12] = system: E. faecium W54; assay: as above; format: cell-based, Enterococcus faecium W54; settings: E. faecium W54 (enterococcal isolates), overnight culture, anaerobic, 37 °C, 100 µM levodopa
[13] = system: L. brevis W63; assay: as above; settings: L. brevis W63, overnight culture, anaerobic, 37 °C, 100 µM levodopa
[14] = substrate: N[C@@H](Cc1ccc(O)c(O)c1)C(=O)O; assay: purified protein, by the assay type; settings: other: DDC, levodopa as substrate, as used for Ki
[15] = levodopa as substrate, as used for Ki
[16] = pH 5.0, 10 nM enzyme, substance as substrate
[17] = ^PTDCEFM, pH 4.5, 10 nM enzyme, substance as substrate

Chain of TDCEFM (Q3Y2S5 entry or part of it): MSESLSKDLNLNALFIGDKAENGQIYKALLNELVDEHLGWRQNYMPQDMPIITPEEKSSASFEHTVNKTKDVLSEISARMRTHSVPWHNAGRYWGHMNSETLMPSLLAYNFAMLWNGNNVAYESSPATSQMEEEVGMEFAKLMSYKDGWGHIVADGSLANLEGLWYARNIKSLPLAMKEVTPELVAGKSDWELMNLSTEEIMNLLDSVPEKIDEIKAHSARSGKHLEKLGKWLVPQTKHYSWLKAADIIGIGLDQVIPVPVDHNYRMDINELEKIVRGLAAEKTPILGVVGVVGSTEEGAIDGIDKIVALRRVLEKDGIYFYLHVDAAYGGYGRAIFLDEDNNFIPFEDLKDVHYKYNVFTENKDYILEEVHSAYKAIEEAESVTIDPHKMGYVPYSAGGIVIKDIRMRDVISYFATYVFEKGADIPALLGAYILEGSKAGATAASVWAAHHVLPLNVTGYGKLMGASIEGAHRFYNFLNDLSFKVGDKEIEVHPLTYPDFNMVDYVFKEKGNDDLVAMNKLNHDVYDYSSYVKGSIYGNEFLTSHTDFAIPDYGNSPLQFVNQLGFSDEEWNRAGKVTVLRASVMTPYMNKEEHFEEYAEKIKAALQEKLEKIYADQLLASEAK
T1 sequence (Q838D6 whole entry): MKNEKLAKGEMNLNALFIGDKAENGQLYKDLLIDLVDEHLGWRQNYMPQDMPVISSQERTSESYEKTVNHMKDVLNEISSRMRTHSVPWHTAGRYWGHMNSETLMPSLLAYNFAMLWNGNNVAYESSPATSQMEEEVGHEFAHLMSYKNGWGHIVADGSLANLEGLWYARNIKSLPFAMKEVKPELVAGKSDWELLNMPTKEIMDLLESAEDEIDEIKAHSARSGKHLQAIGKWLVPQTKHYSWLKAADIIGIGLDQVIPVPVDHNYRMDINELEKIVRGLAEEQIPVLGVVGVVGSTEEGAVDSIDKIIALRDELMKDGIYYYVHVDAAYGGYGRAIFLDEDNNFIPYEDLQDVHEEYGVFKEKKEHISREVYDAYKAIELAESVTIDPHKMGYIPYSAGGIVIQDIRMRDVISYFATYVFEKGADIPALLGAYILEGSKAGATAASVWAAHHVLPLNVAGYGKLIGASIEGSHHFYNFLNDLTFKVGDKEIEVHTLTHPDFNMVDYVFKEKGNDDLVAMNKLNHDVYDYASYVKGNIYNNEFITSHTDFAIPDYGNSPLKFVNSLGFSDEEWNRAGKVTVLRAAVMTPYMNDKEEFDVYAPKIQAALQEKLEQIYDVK
T2 sequence (A0A481NV25 whole entry): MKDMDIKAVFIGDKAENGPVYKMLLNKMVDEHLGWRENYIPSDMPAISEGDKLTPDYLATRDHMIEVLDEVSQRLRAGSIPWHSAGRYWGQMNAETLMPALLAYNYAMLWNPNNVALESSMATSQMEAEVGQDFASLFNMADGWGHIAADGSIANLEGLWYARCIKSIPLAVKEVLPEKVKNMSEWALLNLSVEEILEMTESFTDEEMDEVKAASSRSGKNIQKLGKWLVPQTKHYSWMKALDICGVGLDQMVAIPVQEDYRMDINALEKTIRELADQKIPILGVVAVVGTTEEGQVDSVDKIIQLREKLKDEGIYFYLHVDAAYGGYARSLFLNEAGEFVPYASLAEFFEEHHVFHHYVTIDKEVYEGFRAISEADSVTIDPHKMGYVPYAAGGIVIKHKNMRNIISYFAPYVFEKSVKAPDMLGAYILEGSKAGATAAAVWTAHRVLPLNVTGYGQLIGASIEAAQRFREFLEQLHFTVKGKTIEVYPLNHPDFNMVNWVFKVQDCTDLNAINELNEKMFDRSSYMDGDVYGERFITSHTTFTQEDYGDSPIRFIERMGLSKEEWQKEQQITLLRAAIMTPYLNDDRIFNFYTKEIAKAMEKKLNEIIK

Molecule: C[C@@](Cc1ccc(O)c(O)c1)(NN)C(=O)O [carbidopa]
- IC50 [1]: 93.8 µM
- HillSlope ([1]; TDCEFS, IC50 curve): 1.6
- [IC50]/[s] ([1]; TDCEFS, [S] levodopa 1000 µM): 9%
- Ki ([1]; read-out: Ki=IC50/(1+([S]/Km))): 70.6 µM
- IC50 [2]: 79.2 µM
- HillSlope ([2]; TDCEFM, IC50 curve): 1.3
- [IC50]/[s] ([2]; TDCEFM, [S] levodopa 1000 µM): 8%
- Ki ([2]; read-out: Ki=IC50/(1+([S]/Km))): 69.6 µM
- IC50 [3]: 201 µM
- HillSlope ([3]; PTDCEFM, IC50 curve): 1.1
- [IC50]/[s] ([3]; PTDCEFM, [S] levodopa 500 µM): 40%
- Ki ([3]; read-out: Ki=IC50/(1+([S]/Km))): 95.1 µM
- IC50 [4]: 0.01 µM
- HillSlope ([4]; DDC, IC50 curve): 1.16
- [IC50]/[s] ([4]; DDC, [S] levodopa 100 µM): 0.01%
- Ki ([4]; read-out: Ki=IC50/(1+([S]/Km))): 0.005 µM
- Ki^TDC/Ki^DDC, times more potent inhibitor of human DOPA decarboxylase than bacterial TDCs [5]: 1.4–1.9 × 10^4
- levodopa conversion by batch culture on co-incubation with carbidopa [6]: unaffected
- levodopa conversion by batch culture on co-incubation with carbidopa [7]: unaffected

Molecule: N[C@@H](Cc1ccc(O)c(O)c1)C(=O)O [levodopa, L-3,4-dihydroxyphenylalanine]
- Km [8, 15]: 3040 µM
- Kcat [8, 16]: 58.85 ± 2.28 s⁻¹
- Km [8, 16]: 3000 ± 400 µM
- Vmax [8, 16]: 35.3 ± 1.4 µM/min
- Km [9, 15]: 7240 µM
- Kcat [9, 16]: 42.48 ± 2.22 s⁻¹
- Km [9, 16]: 7200 ± 800 µM
- Vmax [9, 16]: 25.5 ± 1.3 µM/min
- Km ([10]; PTDCEFM, levodopa as substrate, as used for Ki): 448 µM
- Kcat [10, 17]: 5.707 ± 0.35 s⁻¹
- Km [10, 17]: 400 ± 100 µM
- Vmax [10, 17]: 3.4 ± 0.2 µM/min

Molecule: N[C@@H](Cc1ccc(O)cc1)C(=O)O [tyrosine, L-tyrosine]
- Kcat [8, 16]: 116 ± 4.8 s⁻¹
- Km [8, 16]: 600 ± 100 µM
- Vmax [8, 16]: 69.6 ± 2.9 µM/min
- Kcat [9, 16]: 36.73 ± 4.12 s⁻¹
- Km [9, 16]: 1500 ± 300 µM
- Vmax [9, 16]: 22 ± 2.5 µM/min
- Kcat [10, 17]: 7.26 ± 0.32 s⁻¹
- Km [10, 17]: 200 ± 50 µM
- Vmax [10, 17]: 4.4 ± 0.2 µM/min
- conversion of tyrosine and levodopa into tyramine and dopamine by the culture [11]: able to convert
- conversion of tyrosine and levodopa into tyramine and dopamine by the culture [12]: able to convert
- conversion of tyrosine and levodopa into tyramine and dopamine by the culture [13]: able to convert

B1: human DOPA decarboxylase (DDC) (Homo sapiens) (protein)
chain: MNASEFRRRGKEMVDYMANYMEGIEGRQVYPDVEPGYLRPLIPAAAPQEPDTFEDIINDVEKIIMPGVTHWHSPYFFAYFPTASSYPAMLADMLCGAIGCIGFSWAASPACTELETVMMDWLGKMLELPKAFLNEKAGEGGGVIQGSASEATLVALLAARTKVIHRLQAASPELTQAAIMEKLVAYSSDQAHSSVERAGLIGGVKLKAIPSDGNFAMRASALQEALERDKAAGLIPFFMVATLGTTTCCSFDNLLEVGPICNKEDIWLHVDAAYAGSAFICPEFRHLLNGVEFADSFNFNPHKWLLVNFDCSAMWVKKRTDLTGAFRLDPTYLKHSHQDSGLITDYRHWQIPLGRRFRSLKMWFVFRMYGVKGLQAYIRKHVQLSHEFESLVRQDPRFEICVEVILGLVCFRLKGSNKVNEALLQRINSAKKIHLVPCHLRDKFVLRFAICSRTVESAHVQRAWEHIKELAADVLRAERE
- Km [14]: 87.3 µM
